The record followed here is patent US12240828B2, “Heteroaromatic compounds as vanin inhibitors” (Boehringer Ingelheim International GmbH, priority 2018, dated 2025).

Molecules are shown by their SMILES. pIC50: −log10 of the molar value.

Experiment [1] has as its target T1, FLAG-tagged Vanin-1 (AA 22-493, T26I) (Homo sapiens, UniProt O95497, T26I).
T1 construct: FLAG-tagged Vanin-1 (AA 22-493, T26I, produced internally); FLAG; made in house
T1 sequence (O95497 22-493 T26I): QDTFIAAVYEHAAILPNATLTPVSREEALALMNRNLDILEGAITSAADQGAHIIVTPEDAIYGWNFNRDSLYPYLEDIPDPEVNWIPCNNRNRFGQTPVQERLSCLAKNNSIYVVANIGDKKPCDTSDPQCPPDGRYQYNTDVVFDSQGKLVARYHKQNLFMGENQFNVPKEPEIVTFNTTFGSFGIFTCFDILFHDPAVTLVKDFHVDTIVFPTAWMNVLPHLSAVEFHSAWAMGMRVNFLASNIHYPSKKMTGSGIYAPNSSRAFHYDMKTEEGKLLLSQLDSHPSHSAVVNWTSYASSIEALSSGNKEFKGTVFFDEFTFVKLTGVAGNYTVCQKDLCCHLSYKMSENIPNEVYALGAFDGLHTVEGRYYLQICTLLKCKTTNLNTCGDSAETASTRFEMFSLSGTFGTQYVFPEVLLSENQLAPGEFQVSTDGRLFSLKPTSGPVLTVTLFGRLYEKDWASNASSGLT
Nature of the experiment: Vanin-1 enzymatic assay. As to conditions: 0.1 nM Vanin-1, 3 μM D-pantethine, pantothenic acid formation by RapidFire MS; geometric mean if multiple measurements; read-out: VNN-1 IC50. It counts as biochemical. How it is done:
The test compounds are dissolved in 100% DMSO at a concentration of 10 mM and in a first step diluted in DMSO to a concentration of 5 mM, followed by serial dilution steps in 100% DMSO. Dilution factor and number of dilution steps may vary according to needs. Typically 8 different concentrations by 1:5 dilutions are prepared, a further intermediate dilutions of the substances is carried out with assay buffer resulting in 1% final DMSO concentration in the assay.
0.1 nM of FLAG-tagged Vanin-1 (AA 22-493, T26I, produced internally) and test compounds are incubated at room temperature for 20 minutes in assay buffer (1 mM DTT, 0.0025% Brij-35, 50 mM HEPES, pH7.5). D-Pantethine (Sigma, Cat #P2125-5G) in assay buffer is added (final concentration 3 μM) and incubated for additional 30 minutes at room temperature. Total assay volume typically is 40 μl but might be adjusted according to needs. Reaction is stopped by adding equal volume of stop solution as the reaction mixture to reach 100 nM HD-pantothenic acid (as an internal standard) and 1% TFA. Assay plates are centrifuged for 2 minutes and the formation of pantothenic acid is detected by RapidFire Mass Spectrometry (mobile phase A: 0.1% formic acid and 0.01% trifluoroacetic acid in water; mobile phase B: 47.5% acetonitrile, 47.5% methanol, 0.1% formic acid and 0.01% trifluoroacetic acid in water) using a C18, 12 μL cartridge (Agilent Cat #G9205A).
The values given in Table I result from measurements of one or more samples. In case of multiple measurements the geometric mean values are given.

The test system of another experiment is Pantetheinase (vanin). In words: Human Whole Blood assay. The experiment is classed as cell-based. Conditions: pantethine substrate, pantothenic acid formation by RapidFire MS, read-out: HWB IC50. How it is done:
Human Whole Blood assay: Pantetheinase (vanin) converts panteheine into pantothenic acid and cysteamine. Accordingly, in the described protocol vanin activity is quantified by formation of pantothenic acid after pantetheine supplementation via pantethine. The assay is applicable to identify vanin inhibitors. Compound stocks are dissolved in DMSO at 10 mM. Further dilutions are performed in RPMI 1640 medium (Gibco, #A-10491-01) and final concentrations in the assay are 0.032 nM-500 nM.
Human blood is drawn into a blood bag (1% heparin, 50 I.E./mL). Blood is aliquoted into cavities of 96-deep-well plates at 290 μL and mixed with 10 μL compound solution or vehicle (30 sec at 1400 rpm on a shaker). Equilibration follows at room temperature, 250 rpm and for 30 min. The assay is starts by adding 10 μL of substrate solution (20 μM pantethine in 1 mM DTT, 0.0025% Brij-35, 50 mM HEPES, pH7.5) to each well, except for some blank wells which receive […] substrate buffer (1 mM DTT, 0.0025% Brij-35, 50 mM HEPES, pH7.5) only. Samples are thoroughly shaken (30 sec, 1400 rpm) and reaction is allowed to take place at room temperature, 250 rpm and for 5 min. The reaction is stopped by addition of a vanin tool inhibitor in excess (BI-1 total conc. 10 μM). Centrifugation of the plate follows at 4° C., 665 G for 10 min. Then the blood plasma samples (100 μL) are transferred into another 96-deep-well plate and proteins are precipitated (5 min on ice) by adding 100 μL of ice cold precipitation solution (1 μM labelled pantothenic acid (di-β-alanine-13C6,15N2 calcium salt, Sigma, #705837) in acetonitrile). Afterwards the plate is centrifuged (4° C., 3220 G, 10 min) and supernatants (50 μL) are collected into another 96-deep-well plate and mixed (10 sec, 1400 rpm) with 150 μL ice cold formic acid (0.1%, Carl Roth GmbH+Co.KG, #CP03.1). The formation of pantothenic acid is detected by RapidFire Mass Spectrometry. A TripleQuad 6500+ (ABSciex, Germany) is equipped with an LC-1290 system, a RapidFire autosampler (Agilent, Germany) and a C18 cartridge Type C 12 μL (Agilent Cat #G9526-80000). Mobile phase A is consisting of 0.09% formic acid and 0.01% trifluoroacetic acid in water and mobile phase B of 0.09% formic acid and 0.01% trifluoroacetic acid in acetonitrile/methanol/water=47.5/47.5/5.

Consider `CN(C(=O)C1CCC1)[C@H]1CCN(C(=O)c2ccc(NCc3cccnc3)nc2)C1` [Example 3.1, N-Methyl-N-[(3S)-1-(6-{[(pyridin-3-yl)methyl]amino}pyridine-3-carbonyl)pyrrolidin-3-yl]cyclobutanecarboxamide], for which the results for the pIC50 (in experiment [1]; in the experiment on Pantetheinase (vanin)) were 10.15 and 8.88, respectively.
For `CC(=O)N(C)[C@H]1CCN(C(=O)c2ccc(NC3CCc4ncccc43)nc2)C1` (single isomer, unassigned) [Example 8.8] the same measures were 9.72 and 8.71.
As for `CN(C(=O)C1CC(F)(F)C1)[C@H]1CCN(C(=O)c2ccc(NCc3cccnc3)nc2)C1` [Example 8.4], the pIC50 (commonly the IC50 on a negative log10 scale, so that one unit is a factor of ten) was 9.89 in experiment [1] and 8.94 with Pantetheinase (vanin).
Turning to `CN(C(=O)C1(C)CCC1)[C@H]1CCN(C(=O)c2ccc(NC3(c4cncnc4)CC3)nc2)C1` [Example 8.10], the figures for the pIC50 (in experiment [1]; in the experiment on Pantetheinase (vanin)) were 9.48 and 8.67, respectively.
The like results for `CC(=O)N(C)[C@H]1CCN(C(=O)c2ccc(N[C@@H](C)c3cccc(C(F)(F)F)c3)nc2)C1` [Example 9.3] were, in that order, 9.77 and 8.37.
The like results for `CN(C(=O)C1CC1)[C@H]1CCN(C(=O)c2ccc(NCc3cnccc3C(F)(F)F)nc2)C1` [Example 1.33] were, in that order, 9.34 and 8.69.
For `CN(C(=O)C1(C)CCC1)[C@H]1CCN(C(=O)c2ccc(NCc3ccc(N)nc3)nc2)C1` [Example 1.31] the same measures were 9.36 and 8.58.
As to `C[C@@H](Nc1ccc(C(=O)N2CC[C@H](N(C)C(=O)C3(C)CCC3)C2)cn1)c1cnccn1` [Example 1.30], the pIC50 in experiment [1] is 9.40; in the experiment with Pantetheinase (vanin) it was 8.48.
The like results for `O=C(c1ccc(NCc2ccc(Cl)cc2)nc1)N1CC[C@H](N2CCOC2=O)C1` [Example 8.12] were, in that order, 9.39 and 7.98.
For `CNS(=O)(=O)c1cccc(C(C)Nc2ccc(C(=O)N3CC[C@H](N(C)C(C)=O)C3)cn2)c1` (stereo partly drawn) [Example 1.21] the same measures were 9.62 and 9.10.
For `CC(=O)N(C)[C@H]1CCN(C(=O)c2ccc(NCc3ccccc3Cl)nc2)C1` [Example 1.4] the same measures were 9.32 and 8.31.
`CC(=O)N(C)[C@H]1CCN(C(=O)c2ccc(NCc3cncc(F)c3)nc2)C1` [Example 1.43]: the pIC50 in experiment [1] is 9.07; with Pantetheinase (vanin), 8.49.
Consider `CC(=O)N(C)[C@H]1CCN(C(=O)c2ccc(NC3(c4ccc(C(F)(F)F)nc4)CC3)nc2)C1` [Example 1.20], for which the pIC50 was 9.64 in experiment [1] and 8.32 in the experiment with Pantetheinase (vanin).
The like results for `CC(=O)N(C)[C@H]1CCN(C(=O)c2ccc(NC(C)c3nccs3)nc2)C1` (single isomer, unassigned) [Example 5.1.A] were, in that order, 10.05 and 8.74.
The like results for `CC(=O)N(C)[C@H]1CCN(C(=O)c2ccc(NCc3cccc(C#N)c3)nc2)C1` [Example 1.1, N-[(3S)-1-(6-{[(3-Cyanophenyl)methyl]amino}pyridine-3-carbonyl)pyrrolidin-3-yl]-N-methylacetamide] were, in that order, 8.90 and 8.30.
For `CC1(C#N)CCN(C(=O)c2ccc(NC(C)(C)c3cccnc3)nc2)C1` (stereo not drawn) [Example 8.3] the same measures were 10.10 and 9.07.
For `O=C(c1ccc(NCc2cccnc2)nc1)N1CCC2(CCOCC2)C1` [Example 8.11], the values for the pIC50 (in experiment [1]; in the experiment on Pantetheinase (vanin)) were 9.47 and 8.48, respectively.
The like results for `CN(c1ncccn1)[C@H]1CCN(C(=O)c2ccc(NCc3cccnc3)nc2)C1` [Example 8.5] were, in that order, 9.85 and 7.79.
`CC(=O)N(C)[C@H]1CCN(C(=O)c2ccc(N[C@@H](C)c3cccc(S(N)(=O)=O)c3)nc2)C1` [Example 1.19]: the results for the pIC50 (in experiment [1]; with Pantetheinase (vanin)) were 9.66 and 8.58, respectively.
Take `Cc1ncccc1CNc1ccc(C(=O)N2CC[C@H](N(C)C(=O)C3CC3)C2)cn1` [Example 1.15]: the pIC50 is 9.68 in experiment [1] and 8.82 with Pantetheinase (vanin).
The like results for `CN(C(=O)C1(C)CCC1)[C@H]1CCN(C(=O)c2ccc(NC3CCc4[nH]ncc43)nc2)C1` (stereo partly drawn) [Example 1.26] were, in that order, 9.54 and 8.70.
The like results for `CC(=O)N(C)[C@H]1CCN(C(=O)c2ccc(NC3CCc4ncccc43)nc2)C1` (single isomer, unassigned) [Example 8.14] were, in that order, 8.07 and 7.12.
The like results for `CC(C)(Nc1ccc(C(=O)N2CC[C@H](N3CCCC3=O)C2)cn1)c1ccccc1` [Example 4.2] were, in that order, 10.00 and 8.61.
Turning to `CC(=O)N(C)[C@H]1CCN(C(=O)c2ccc(NC(C)c3cccc(S(N)(=O)=O)c3)nc2)C1` (stereo partly drawn) [Example 1.27], the negative logarithm of the IC50 (pIC50) in experiment [1] is 9.52; in the experiment with Pantetheinase (vanin) it was 8.36.
The like results for `CC(=O)N(C)[C@H]1CCN(C(=O)c2ccc(NC(C)(C)c3ccc(Cl)cc3)nc2)C1` [Example 4.7] were, in that order, 9.66 and 8.43.
The like results for `CC(=O)N(C)[C@H]1CCN(C(=O)c2ccc(NC(C)c3cccc(C#N)c3)nc2)C1` (stereo partly drawn) [Example 1.40] were, in that order, 9.17 and 8.68.
For `Cc1ccncc1CNc1ccc(C(=O)N2CC[C@H](N(C)C(=O)C3CC3)C2)cn1` [Example 1.5] the same measures were 10.15 and 8.80.
With `CC(=O)N(C)[C@H]1CCN(C(=O)c2ccc(NC(C)c3cccnc3)nc2)C1` (single isomer, unassigned) [Example 6.1.A], the negative logarithm of the IC50 (pIC50) was 10.05 in experiment [1] and 8.59 with Pantetheinase (vanin).
The like results for `CC(=O)N(C)[C@H]1CCN(C(=O)c2ccc(NCc3ccccc3)nc2)C1` [Example 1.6] were, in that order, 9.09 and 8.63.
The like results for `CC(C)(Nc1ccc(C(=O)N2CC[C@H](N3CCOC3=O)C2)cn1)c1ccccc1` [Example 4.3] were, in that order, 9.92 and 8.63.
For `CC(=O)N(C)[C@H]1CCN(C(=O)c2ccc(NCc3cccs3)nc2)C1` [Example 1.42] the same measures were 9.07 and 8.01.
Regarding `CC1(C#N)CCN(C(=O)c2ccc(NCc3cccnc3)nc2)C1` (stereo not drawn) [Example 3.3], the pIC50 in experiment [1] is 9.62; in the experiment on Pantetheinase (vanin), 8.80.
The like results for `CN(C(=O)C1CCC1)[C@H]1CCN(C(=O)c2ccc(NC(C)(C)c3ccccc3)nc2)C1` [Example 2.2] were, in that order, 10.15 and 8.35.
